Activity calls are given as the source filed them. The calls are words filed in the database; no cut-off is given here.
Legend:
SUM149PT [1] = experiment: Antiproliferative activity against human SUM149PT cells assessed as inhibition of cell growth incubated for 7 days by CellTiter-Glo reagent based luminescence analysis; assay type: functional; conditions: 168 h
[2] = Toxicity against female Sprague-Dawley rat assessed as body weight loss at 30 mg/kg, po administered once daily via gavage for 28 days and measured twice a week; assay type: organism-based; conditions: in vivo, 672 h, time 28 day
SW1417 = experiment: Antiproliferative activity against human SW1417 cells assessed as reduction in cell viability incubated for 7 days by CellTiter-Glo reagent based luminescence analysis; assay type: functional; conditions: SW1417, 168 h
[3] = biological target: T1, Cyclin-dependent kinase 12/13 (Homo sapiens) (UniProt Q14004+Q9NYV4); experiment: Covalent inhibition of CDK12/13 in human SUM149PT cells assessed as reduction in level of phosphorylation of Ser2 on RNA Pol II CTD at 500 nM incubated for 12 hrs followed by drug wash-out and measured after 72 hrs by western blot analysis; assay type: cell-based
[4] = Toxicity against male Sprague-Dawley rat assessed as effect on body weight at 10 to 20 mg/kg, po administered once daily via gavage for 28 days and measured twice a week; assay type: organism-based; conditions: in vivo, 672 h, dose 10-20 mg/kg, time 28 day
[5] = Protein binding in mouse plasma assessed as free fraction at 400 uM incubated for 4 hrs by equilibrium dialysis method based LC-MS/MS analysis; assay type: ADME, cell-free
[6] = AUC(0 to t) in male Sprague-Dawley rat at 10 mg/kg, po administered once daily via gavage for 28 days; assay type: ADME, organism-based; conditions: in vivo, 672 h, time 28 day
DLD-1 = experiment: Antiproliferative activity against human DLD-1 cells assessed as reduction in cell viability incubated for 7 days by CellTiter-Glo reagent based luminescence analysis; assay type: functional; conditions: DLD-1, 168 h
KARPAS-299 = experiment: Antiproliferative activity against human KARPAS-299 cells assessed as reduction in cell viability incubated for 7 days by CellTiter-Glo reagent based luminescence analysis; assay type: functional; conditions: KARPAS-299, 168 h
[7] = GSH reactivity assessed as half life to adduct formation at 10 uM by LC-MS/MS analysis; assay type: physicochemical
[8] = Half life in Sprague-Dawley rat at 1 mg/kg, iv measured for 24 hrs by LC-MS/MS analysis; assay type: ADME, organism-based; conditions: in vivo
[9] = Cmax in Sprague-Dawley rat at 15 mg/kg, po measured for 24 hrs by LC-MS/MS analysis; assay type: ADME, organism-based; conditions: in vivo
[10] = Cmax in female Sprague-Dawley rat at 15 mg/kg, po administered once daily via gavage for 28 days; assay type: ADME, organism-based; conditions: in vivo, time 28 day
[11] = Cmax in female Sprague-Dawley rat at 30 mg/kg, po administered via gavage and measured on day 1; assay type: ADME, organism-based; conditions: in vivo, time 1 day
[12] = Half life in female Sprague-Dawley rat at 7.5 mg/kg, po administered once daily via gavage for 28 days; assay type: ADME, organism-based; conditions: in vivo, time 28 day
[13] = GSH reactivity assessed as half life to adduct formation at 1 uM by LC-MS/MS analysis; assay type: physicochemical
[14] = biological target: T1, Cyclin-dependent kinase 12/13 (Homo sapiens); experiment: Inhibition of CDK12/13 in human SUM149PT cells assessed as reduction in level of phosphorylation of Ser2 on RNA Pol II CTD at 250 to 1000 nM by western blot analysis; assay type: cell-based; conditions: dose 250-1000 nM, time lower 1.0 hrs, time upper […]
[15] = Toxicity against male Sprague-Dawley rat assessed as decrease in lymphocytes content at 10 to 40 mg/kg, po administered once daily via gavage for 28 days and measured on day 29; assay type: organism-based; conditions: in vivo, 696 h, dose 10-40 mg/kg, time 29 day
[16] = Toxicity against female Sprague-Dawley rat assessed as decrease in thymus weight at 7.5 to 30 mg/kg, po administered once daily via gavage for 28 days and measured on day 29; assay type: organism-based; conditions: in vivo, 696 h, dose 7.5-30 mg/kg, time 29 day
SW-403 = experiment: Antiproliferative activity against human SW403 cells assessed as reduction in cell viability incubated for 7 days by CellTiter-Glo reagent based luminescence analysis; assay type: functional; conditions: SW-403, 168 h
[17] = biological target: CDK12/Cyclin K (Homo sapiens) (UniProt O75909+Q9NYV4); experiment: Inhibition of N-terminal GST-tagged human recombinant CDK12/N-terminal FLAG and C-terminal 6X His-tagged Cyclin K expressed in HEP Sf9 cells using ATP as substrate at 2 uM measured after 60 mins by ADP-Glo reagent based luminescence assay
CDK12/Cyclin K (Homo sapiens), sequence (O75909 whole entry, looked up): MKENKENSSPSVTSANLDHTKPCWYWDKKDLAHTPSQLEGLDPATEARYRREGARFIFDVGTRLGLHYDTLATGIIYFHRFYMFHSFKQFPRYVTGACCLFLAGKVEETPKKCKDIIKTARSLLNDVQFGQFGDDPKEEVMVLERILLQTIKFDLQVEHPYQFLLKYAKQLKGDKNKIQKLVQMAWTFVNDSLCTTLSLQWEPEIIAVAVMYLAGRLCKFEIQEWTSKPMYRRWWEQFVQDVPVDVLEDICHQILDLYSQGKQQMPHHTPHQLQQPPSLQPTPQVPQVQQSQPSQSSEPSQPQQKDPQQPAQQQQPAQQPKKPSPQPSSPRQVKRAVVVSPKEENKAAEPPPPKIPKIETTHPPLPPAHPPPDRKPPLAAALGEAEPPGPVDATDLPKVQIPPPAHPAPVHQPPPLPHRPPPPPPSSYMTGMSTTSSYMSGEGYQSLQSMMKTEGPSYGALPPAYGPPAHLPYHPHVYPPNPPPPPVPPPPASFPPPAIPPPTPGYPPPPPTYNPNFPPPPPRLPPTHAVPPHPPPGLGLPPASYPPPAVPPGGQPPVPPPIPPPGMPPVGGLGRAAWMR
CDK12/Cyclin K (Homo sapiens), sequence (Q9NYV4 whole entry, looked up): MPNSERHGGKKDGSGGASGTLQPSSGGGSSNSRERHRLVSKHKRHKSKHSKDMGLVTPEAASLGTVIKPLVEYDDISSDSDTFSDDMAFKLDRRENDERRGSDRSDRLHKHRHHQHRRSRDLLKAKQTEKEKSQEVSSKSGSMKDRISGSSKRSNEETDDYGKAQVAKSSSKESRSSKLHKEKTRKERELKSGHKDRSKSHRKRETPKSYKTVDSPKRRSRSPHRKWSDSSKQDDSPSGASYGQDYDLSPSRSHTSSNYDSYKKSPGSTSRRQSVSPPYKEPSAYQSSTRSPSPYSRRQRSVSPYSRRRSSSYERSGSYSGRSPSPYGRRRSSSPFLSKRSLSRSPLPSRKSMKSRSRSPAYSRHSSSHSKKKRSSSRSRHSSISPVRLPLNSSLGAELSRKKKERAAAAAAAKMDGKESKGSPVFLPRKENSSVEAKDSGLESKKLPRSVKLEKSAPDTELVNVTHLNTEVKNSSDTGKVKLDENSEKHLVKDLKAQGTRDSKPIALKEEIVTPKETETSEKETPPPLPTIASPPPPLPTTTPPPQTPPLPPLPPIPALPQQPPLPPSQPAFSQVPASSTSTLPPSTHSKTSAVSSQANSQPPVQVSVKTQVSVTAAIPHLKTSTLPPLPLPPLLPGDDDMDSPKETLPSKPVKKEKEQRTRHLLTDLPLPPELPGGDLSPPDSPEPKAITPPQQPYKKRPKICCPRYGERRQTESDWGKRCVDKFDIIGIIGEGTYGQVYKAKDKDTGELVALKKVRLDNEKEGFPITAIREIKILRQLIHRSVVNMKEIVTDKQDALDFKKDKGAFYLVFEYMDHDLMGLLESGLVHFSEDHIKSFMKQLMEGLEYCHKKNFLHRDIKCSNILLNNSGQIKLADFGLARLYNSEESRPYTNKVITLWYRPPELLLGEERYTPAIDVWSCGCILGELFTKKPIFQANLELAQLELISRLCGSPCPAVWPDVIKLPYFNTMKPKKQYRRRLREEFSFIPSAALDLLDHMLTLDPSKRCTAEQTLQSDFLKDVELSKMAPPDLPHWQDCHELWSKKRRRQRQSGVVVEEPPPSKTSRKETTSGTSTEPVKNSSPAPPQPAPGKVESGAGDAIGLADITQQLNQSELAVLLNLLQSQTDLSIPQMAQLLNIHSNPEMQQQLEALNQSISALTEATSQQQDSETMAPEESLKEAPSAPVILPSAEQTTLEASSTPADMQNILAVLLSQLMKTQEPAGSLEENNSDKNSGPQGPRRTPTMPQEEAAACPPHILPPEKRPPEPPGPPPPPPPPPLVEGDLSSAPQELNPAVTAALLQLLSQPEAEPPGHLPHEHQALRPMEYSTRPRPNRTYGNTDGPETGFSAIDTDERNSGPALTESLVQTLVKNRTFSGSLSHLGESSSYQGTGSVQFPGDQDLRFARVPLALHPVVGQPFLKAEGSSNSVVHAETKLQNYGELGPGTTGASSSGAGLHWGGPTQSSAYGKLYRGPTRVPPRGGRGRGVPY

[18] = Toxicity against female Sprague-Dawley rat assessed as effect on blood urea nitrogen level at 7.5 to 30 mg/kg, po administered once daily via gavage for 28 days and measured on day 29; assay type: organism-based; conditions: in vivo, 696 h, dose 7.5-30 mg/kg, time 29 day
Ramos = experiment: Antiproliferative activity against human Ramos cells assessed as reduction in cell viability incubated for 7 days by CellTiter-Glo reagent based luminescence analysis; assay type: functional; conditions: 168 h
SUM149PT [19] = experiment: Antitumor activity against human SUM149PT cells xenografted in Balb/c mouse assessed as inhibition of tumor growth at 30 mg/kg, po administered once daily via gavage and measured on day 20; assay type: functional; conditions: 480 h, time 20 day, read-out: TGI
[20] = Ratio of drug level in tumor to plasma in Balb/c mouse xenografted with human MV4-11 cells at 30 mg/kg, po administered via gavage and measured after 2 hrs; assay type: ADME, organism-based
[21] = Toxicity against male Sprague-Dawley rat assessed as effect on chlorine level in blood at 10 to 40 mg/kg, po administered once daily via gavage for 28 days and measured on day 29; assay type: organism-based; conditions: in vivo, 696 h, dose 10-40 mg/kg, time 29 day
[22] = Toxicity against male Sprague-Dawley rat assessed as perianal contamination at 40 mg/kg, po administered once daily via gavage for 28 days; assay type: organism-based; conditions: in vivo, 672 h, time 28 day
[23] = AUC (0 to infinity) in Sprague-Dawley rat at 150 mg/kg, po by LC-MS/MS analysis; assay type: ADME, organism-based; conditions: in vivo
[24] = Toxicity against female Sprague-Dawley rat assessed as effect on sodium level in blood at 7.5 to 30 mg/kg, po administered once daily via gavage for 28 days and measured on day 29; assay type: organism-based; conditions: in vivo, 696 h, dose 7.5-30 mg/kg, time 29 day
[25] = Toxicity against male Sprague-Dawley rat assessed as effect on mean corpuscular hemoglobin at 10 to 40 mg/kg, po administered once daily via gavage for 28 days and measured on day 29; assay type: organism-based; conditions: in vivo, 696 h, dose 10-40 mg/kg, time 29 day
[26] = biological target: Cyclin-dependent kinase 13/Cyclin-K (Homo sapiens, UniProt Q14004); experiment: Inhibition of CDK13/Cyclin K (unknown origin) using pS7-CTD peptide and ATP as substrate incubated for 120 mins by ADP-Glo reagent based luminescence analysis; assay type: protein-complex assay
Cyclin-dependent kinase 13/Cyclin-K, sequence (Q14004 whole entry): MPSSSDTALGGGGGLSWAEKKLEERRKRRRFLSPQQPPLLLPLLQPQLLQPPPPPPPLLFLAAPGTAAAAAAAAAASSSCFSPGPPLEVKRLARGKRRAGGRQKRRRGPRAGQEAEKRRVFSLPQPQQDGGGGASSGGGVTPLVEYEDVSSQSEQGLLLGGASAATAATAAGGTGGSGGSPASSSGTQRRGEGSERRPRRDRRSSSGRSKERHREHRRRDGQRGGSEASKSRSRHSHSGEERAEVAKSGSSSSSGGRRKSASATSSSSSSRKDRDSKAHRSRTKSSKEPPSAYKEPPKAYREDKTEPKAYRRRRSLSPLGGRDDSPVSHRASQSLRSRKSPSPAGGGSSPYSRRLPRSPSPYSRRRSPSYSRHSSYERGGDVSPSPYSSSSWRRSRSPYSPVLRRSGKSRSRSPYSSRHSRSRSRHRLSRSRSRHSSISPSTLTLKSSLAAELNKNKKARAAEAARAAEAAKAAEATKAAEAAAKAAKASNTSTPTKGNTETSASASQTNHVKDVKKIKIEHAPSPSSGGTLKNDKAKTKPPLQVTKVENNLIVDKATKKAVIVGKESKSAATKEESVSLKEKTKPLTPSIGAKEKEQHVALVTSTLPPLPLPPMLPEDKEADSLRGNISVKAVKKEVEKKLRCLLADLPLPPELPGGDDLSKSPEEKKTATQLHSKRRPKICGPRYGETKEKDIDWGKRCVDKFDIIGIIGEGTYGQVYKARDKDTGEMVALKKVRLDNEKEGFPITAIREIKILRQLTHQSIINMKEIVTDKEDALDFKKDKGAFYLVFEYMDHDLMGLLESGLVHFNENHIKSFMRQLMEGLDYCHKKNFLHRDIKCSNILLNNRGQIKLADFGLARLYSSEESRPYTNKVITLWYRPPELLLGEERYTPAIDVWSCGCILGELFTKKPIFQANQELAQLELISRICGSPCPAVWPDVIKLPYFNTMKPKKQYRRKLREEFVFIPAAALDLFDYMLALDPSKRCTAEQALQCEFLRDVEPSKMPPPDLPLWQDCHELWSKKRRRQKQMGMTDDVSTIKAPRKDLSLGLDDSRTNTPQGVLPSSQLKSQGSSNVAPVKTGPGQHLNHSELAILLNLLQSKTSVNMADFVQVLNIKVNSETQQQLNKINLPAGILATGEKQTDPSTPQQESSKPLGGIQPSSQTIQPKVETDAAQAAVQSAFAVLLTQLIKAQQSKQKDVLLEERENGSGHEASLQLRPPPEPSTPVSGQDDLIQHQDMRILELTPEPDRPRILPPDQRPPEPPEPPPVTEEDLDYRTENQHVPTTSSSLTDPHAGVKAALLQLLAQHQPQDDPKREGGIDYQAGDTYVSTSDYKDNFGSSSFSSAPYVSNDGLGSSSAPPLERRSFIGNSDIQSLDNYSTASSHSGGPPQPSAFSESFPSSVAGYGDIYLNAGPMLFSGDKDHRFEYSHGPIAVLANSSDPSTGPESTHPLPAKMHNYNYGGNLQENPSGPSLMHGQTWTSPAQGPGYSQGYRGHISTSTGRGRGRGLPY
Cyclin-dependent kinase 13/Cyclin-K, sequence (O75909 whole entry, further chain): as the sequence (O75909 whole entry, looked up) above

[27] = Cmax in male Sprague-Dawley rat at 40 mg/kg, po administered once daily via gavage for 28 days; assay type: ADME, organism-based; conditions: in vivo, time 28 day
[28] = Cmax in male Sprague-Dawley rat at 10 mg/kg, po administered via gavage and measured on day 1; assay type: ADME, organism-based; conditions: in vivo, time 1 day
[29] = Toxicity against male Sprague-Dawley rat assessed as body weight loss at 40 mg/kg, po administered once daily via gavage for 28 days and measured twice a week; assay type: organism-based; conditions: in vivo, 672 h, time 28 day
[30] = biological target: Cyclin-dependent kinase 7 (Homo sapiens) (UniProt P50613); experiment: Inhibition of CDK7 in human SUM149PT cells assessed as reduction in level of phosphorylation of Ser5 on RNA Pol II CTD at 500 nM incubated for 12 hrs followed by drug wash-out and measured after 72 hrs by western blot analysis; assay type: cell-based
Cyclin-dependent kinase 7 (Homo sapiens), sequence (P50613 whole entry): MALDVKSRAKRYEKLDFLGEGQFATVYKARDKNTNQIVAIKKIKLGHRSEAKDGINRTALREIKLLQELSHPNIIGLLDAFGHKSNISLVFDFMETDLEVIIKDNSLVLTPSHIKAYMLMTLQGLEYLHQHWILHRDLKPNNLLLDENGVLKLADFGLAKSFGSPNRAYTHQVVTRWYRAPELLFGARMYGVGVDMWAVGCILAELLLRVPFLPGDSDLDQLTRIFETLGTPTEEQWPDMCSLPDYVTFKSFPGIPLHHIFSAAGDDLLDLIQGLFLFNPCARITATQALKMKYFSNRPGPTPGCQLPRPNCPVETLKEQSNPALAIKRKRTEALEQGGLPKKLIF

[31] = Cmax in female Sprague-Dawley rat at 15 mg/kg, po administered via gavage and measured on day 1; assay type: ADME, organism-based; conditions: in vivo, time 1 day

IC50 (SW1417): 137 nM
inhibition [3]: Active
fraction unbound at 4 h, 400 µM [5]: 0.075
AUCt [6]: 1330 ng·h/mL
IC50 (DLD-1): 135 nM
IC50 (KARPAS-299): 131 nM
t1/2 [7]: 1.38 h
half-life [8]: 0.23 h
Cmax [9]: 797 ng/mL
Cmax [10]: 1800 ng/mL
Cmax [11]: 2200 ng/mL
half-life [12]: 2 h
t1/2 [13]: 1.35 h
inhibition [14]: Time-dependent-effect
IC50 (SW-403): 135 nM
inhibition [17]: 97%
IC50 (Ramos): 101 nM
Kp at 2 h [20]: 0.46
AUC(0-inf) [23]: 31200 ng·h/mL
IC50 [26]: 79.4 nM
Cmax [27]: 2410 ng/mL
Cmax [28]: 460 ng/mL
inhibition [30]: inactive
Cmax [31]: 1280 ng/mL
SMILES: C=CC(=O)N1CCc2c(ncnc2N2CC[C@@H](Nc3ncc(Cl)c(OC)n3)C2)C1
IC50 (SUM149PT [1]): 160 nM
Activity [2]: Toxic
Activity [4]: Non-toxic
Activity [15]: Toxic
Activity [16]: Toxic
Activity [18]: Non-toxic
inhibition in vivo at 30 mg/kg (SUM149PT [19]): 101%
Activity [21]: Non-toxic
Activity [22]: Toxic
Activity [24]: Non-toxic
Activity [25]: Non-toxic
Activity [29]: Toxic

— ChEMBL document CHEMBL6153137, “Design, Synthesis, and Biological Evaluation of Novel Orally Available Covalent CDK12/13 Dual Inhibitors for the Treatment of Tumors” (J Med Chem, 2025)
